Structures can show the parent of a compound that is named as a salt. Where two headings read alike, the source gives them in different places.
What was measured:
SK-MEL-2 = assay: Antiproliferation assay (Assay 7), SK-MEL-2; format: cell-based; details: Homo sapiens, CellTiter-Glo, 72 hours, median, read-out: Antiproli SK-MEL-2 [M] median IC50
Experimental: (§1) Assessment of the Anti-Proliferative Effect of Compounds in Different Cell Lines
(§2) The impact of compounds on the proliferation of different cell lines was assessed using the CellTiter-Glo® Luminescent Cell Viability reagent from Promega (G7573).
(§3) In parallel, cells were plated in a reference (day 0) plate for time zero determination.
(§4) Rim wells were excluded. The cells were incubated for 72 hours in a humidified incubator at 37° C. The day 0 plate was measured by adding 30 μL/well of CTG solution (CellTiter-Glo® Luminescent Cell Viability reagent, Promega G7573) to time zero wells in the reference plate followed by a 10 minutes incubation and luminescence reading at 0.1 ms. using the PHERAstar FS microplate reader (BMG Labtech).
(§5) After 72 hours incubation, the treated plates were measured in the same way as the day 0 plate mentioned above.

PA-1 = assay: Antiproliferation assay (Assay 7), PA-1; format: cell-based; details: Homo sapiens, CellTiter-Glo, 72 hours, median, read-out: Antiproli PA-1 [M] median IC50
Experimental: as §1, §2, §3, §4, §5

SNU-16 = assay: Antiproliferation assay (Assay 7), SNU-16; format: cell-based; details: Homo sapiens, CellTiter-Glo, 72 hours, median, read-out: Antiproli SNU-16 [M] median IC50
Experimental: as §1, §2, §3, §4, §5

A-431 = assay: Antiproliferation assay (Assay 7), A-431; format: cell-based; details: Homo sapiens, CellTiter-Glo, 72 hours, median, read-out: Antiproli A-431 [M] median IC50
Experimental: as §1, §2, §3, §4, §5

DM-S114 = assay: Antiproliferation assay (Assay 7), DM-S114; format: cell-based; details: Homo sapiens, DMS-114, CellTiter-Glo, 72 hours, median, read-out: Antiproli DM-S114 [M] median IC50
Experimental: as §1, §2, §3, §4, §5

SUDHL10 [1] = system: SUDHL10
Experimental: Assay 6 Induction of Cytotoxicity Upon Treatment of Cells with Selected Compounds
Therefore, cytotoxicity assays were run in parallel in SUDHL5 and SUDHL10 cells.
The different cell lines were plated in culture medium (RPMI 1640 [GIBCO #22400-089] supplemented with 10% Fetal Bovine Serum) at a density of 3,300 cells in 30 μl/well in a sterile, solid black, flat bottom, polystyrene, TC-treated 384-well microplate (Corning #3571) using Multidrop Combi Reagent Dispenser. As a control, medium without cells was also added to the plate. Cells were incubated in a humidified incubator at 37° C. overnight. On the next day, the cells were treated with compounds (stock solution, 10 mM in DMSO) using the HP D300 Digital Dispenser in a concentration range of 3.3×10e-5 M (33 μM) to 5×10e-9 M (5 nM) in a single-dot curve with at least 16 dilutions and a DMSO concentration of 0.33%. Rim wells were excluded. The cells were incubated for 5 hours in a humidified incubator at 37° C. After this incubation, 30 μl of CellTiter-Glo® Luminescent Cell Viability reagent (Promega, G7573) was added to each well using the Multidrop Combi Reagent Dispenser, followed by 15 minutes incubation on a shaker at room temperature. Finally, luminescence was read at 0.1 ms, with a gain of 3000 using the PHERAstar FS microplate reader (BMG Labtech).

[2] = from CCOC(=O)c1[nH]c2c(-c3c(CN(CCCN4CCOCC4)S(=O)(=O)CCCCl)nn(C)c3CC)cccc2c1CCCOc1cccc2ccccc12; amine bond; NaH; DMF; 25.0 mM; 60.0 °C; 6.0 h; 2 steps
SUDHL10 [3] = assay: Antiproliferation assay (Assay 7), SUDHL10; format: cell-based; details: CellTiter-Glo, median, read-out: Antiproli SUDHL10 [M] (median) IC50
Experimental: as §1, §2, §3, §4, §5

Row | Structure (SMILES) | IC50 (SK-MEL-2) [M] | IC50 (PA-1) [M] | IC50 (SNU-16) [M] | IC50 (A-431) [M] | also measured
1 | CCc1c2c(nn1C)CN(CC)S(=O)(=O)CCCn1c(C(=O)O)c(CCCOc3cccc4cc(F)ccc34)c3ccc(Cl)c-2c31 (racemic) [Example 56, (rac)-4-chloro-3,14-diethyl-7-{3-[(6-fluoro-1-naphthyl)oxy]propyl}-2-methyl-11,12,14,15-tetrahydro-2H,10H-pyrazolo[3′,4′:4,5][1,2,8]thiadiazacycloundecino[6,7,8-hi]indole-8-carboxylic acid 13,13-dioxide] | 1.14e-06 | 7.07e-07 | 1.05e-06 | 1.18e-06 | IC50 (DM-S114): 5.61e-07 M
2 | CCc1c2c(nn1C)C(CCN1CCOCC1)N(C)S(=O)(=O)CCCn1c(C(=O)O)c(CCCOc3cccc4cc(F)ccc34)c3ccc(Cl)c-2c31 (racemic) [Example 73, (rac)-(4-chloro-3-ethyl-7-{3-[(6-fluoronaphthalen-1-yl)oxy]propyl}-2,14-dimethyl-15-[2-(morpholin-4-yl)ethyl]-13,13-dioxo-10,11,12,13,14,15-hexahydro-2H-13lambda^6-pyrazolo[3′,4′:4,5][1,2,8]thiadiazacycloundecino[6,7,8-hi]indole-8-carboxylic acid (Racemate 1)] | – | – | – | – | IC50 (SUDHL5): 20 nM; IC50 (SUDHL10 [1]): 19 nM
3 | CCc1c2c(nn1C)C(CCC1CCOCC1)N(C)S(=O)(=O)CCCn1c(C(=O)O)c(CCCOc3cccc4cc(F)ccc34)c3ccc(Cl)c-2c31 (racemic) [Example 60, (rac)-4-chloro-3-ethyl-7-{3-[(6-fluoro-1-naphthyl)oxy]propyl}-2,14-dimethyl-15-[2-(tetrahydro-2H-pyran-4-yl)ethyl]-11,12,14,15-tetrahydro-2H,10H-pyrazolo[3′,4′:4,5][1,2,8]thiadiazacycloundecino[6,7,8-hi]indole-8-carboxylic acid 13,13-dioxide (Racemate 1)] | 5.08e-06 | 1.84e-06 | 2.54e-06 | 2.07e-06 | –
4 | CCc1c2c(nn1C)CN(CCCN1CCOCC1)S(=O)(=O)CCCn1c(C(=O)O)c(CCCOc3cccc4ccccc34)c3cccc-2c31 (racemic) [Example 15, (rac)-12-Ethyl-11-methyl-8-(3-morpholinopropyl)-1-(3-(naphthalen-1-yloxy)propyl)-4,5,6,8,9,11-hexahydropyrazolo[3′,4′:4,5][1,2,8]thiadiazacycloundecino[6,7,8-hi]indole-2-carboxylic acid 7,7-dioxide 2,2,2-trifluoroacetic acid salt] | – | – | – | – | ring closure, yield of all isomers [2]: 48.2%
5 | Cc1c2c(nn1C)CN(C)S(=O)(=O)CCCn1c(C(=O)O)c(CCCOc3cccc4ccccc34)c3ccc(Cl)c-2c31 (racemic) [Example 4, (rac)-4-Chloro-2,3,14-trimethyl-7-{3-[(naphthalen-1-yl)oxy]propyl}-13,13-dioxo-10,11,12,13,14,15-hexahydro-2H-13λ^6-pyrazolo[3′,4′:4,5][1,2,8]thiadiazacycloundecino-[6,7,8-hi]indole-8-carboxylic acid] | – | – | – | – | IC50 (SUDHL10 [3]; Homo sapiens, SU-DHL10, 72 h): 5.6e-07 M
6 | Cc1c2c(nn1C)CN(C)S(=O)(=O)CCCn1c(C(=O)O)c(CCCOc3cccc4ccccc34)c3ccc(Cl)c-2c31 (single isomer, unassigned; enantiomer 1) [Example 5, 4-Chloro-2,3,14-trimethyl-7-{3-[(naphthalen-1-yl)oxy]propyl}-13,13-dioxo-10,11,12,13,14,15-hexahydro-2H-13λ^6-pyrazolo[3′,4′:4,5][1,2,8]thiadiazacycloundecino[6,7,8-hi]indole-8-carboxylic acid-N-ethylethanamine salt (Enantiomer 1)] | – | – | – | – | IC50 (SUDHL10 [3]; 72 hours): 4.4e-07 M

Reference: US11401278B2, “Macrocyclic indole derivatives” (The Broad Institute, Inc., priority 2017, dated 2022)
